Measured values reported in the supplement of paper PMC10307832.

Legend:
Assay in all cases: relative viability (nuclei count vs DMSO), 5 days (fraction); higher = more cells survive
[1] = compound: Cc1ccc2nc(NCCN)c3ncc(C)n3c2c1 + COc1cccc2cc(-c3nc([C@H]4CC[C@H](C(=O)O)CC4)n4ncnc(N)c34)[nH]c12 [OSI-027] (partner 0.5 µM)
Method in brief: (§1)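 Medians of duplicate plates are given as relative viability. That measure is the nuclei count in treated wells divided by the count in vehicle wells. Counts were taken on 4× images of lung cancer cell lines in 1536-well plates, 5 days after pin-tool dosing the day after seeding with one drug alone or a fixed anchor-drug dose plus five library-drug doses (not always all listed) in √10 steps.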

Salubrinal + Lapatinib = compound: O=C(/C=C/c1ccccc1)NC(NC(=S)Nc1cccc2cccnc12)C(Cl)(Cl)Cl [Salubrinal] + CS(=O)(=O)CCNCc1ccc(-c2ccc3ncnc(Nc4ccc(OCc5cccc(F)c5)c(Cl)c4)c3c2)o1 [Lapatinib] (partner 2 µM)
Method in brief: as §1

Salubrinal + Dasatinib = compound: O=C(/C=C/c1ccccc1)NC(NC(=S)Nc1cccc2cccnc12)C(Cl)(Cl)Cl [Salubrinal] + Cc1nc(Nc2ncc(C(=O)Nc3c(C)cccc3Cl)s2)cc(N2CCN(CCO)CC2)n1 [Dasatinib] (partner 0.075 µM)
Method in brief: as §1

[2] = compound: Cc1ccc2nc(NCCN)c3ncc(C)n3c2c1 + CS(=O)(=O)N1CCN(Cc2cc3nc(-c4cccc5[nH]ncc45)nc(N4CCOCC4)c3s2)CC1 [Pictilisib] (partner 1 µM)
Method in brief: as §1

Row | Cell Line | relative viability ([1]; first compound 0.04 µM) | relative viability ([1]; first compound 0.1265 µM) | relative viability ([1]; first compound 0.4 µM) | relative viability ([1]; first compound 1.265 µM) | relative viability ([1]; first compound 4 µM) | relative viability (Salubrinal + Lapatinib; first compound 0.08 µM) | relative viability (Salubrinal + Lapatinib; first compound 0.253 µM) | relative viability (Salubrinal + Lapatinib; first compound 0.8 µM) | relative viability (Salubrinal + Lapatinib; first compound 2.53 µM) | relative viability (Salubrinal + Lapatinib; first compound 8 µM) | relative viability (Salubrinal + Dasatinib; first compound 0.08 µM) | relative viability (Salubrinal + Dasatinib; first compound 0.253 µM) | relative viability (Salubrinal + Dasatinib; first compound 0.8 µM) | relative viability (Salubrinal + Dasatinib; first compound 2.53 µM) | relative viability (Salubrinal + Dasatinib; first compound 8 µM) | relative viability ([2]; first compound 0.04 µM) | relative viability ([2]; first compound 0.1265 µM) | relative viability ([2]; first compound 0.4 µM) | relative viability ([2]; first compound 1.265 µM) | relative viability ([2]; first compound 4 µM)
1 | 201T | 0.863 | 0.586 | 0.761 | 0.805 | 0.64 | 1.03 | 1.06 | 1.06 | 1.07 | 1.06 | 0.56 | 0.596 | 0.669 | 0.602 | 0.573 | 0.701 | 0.716 | 0.639 | 0.66 | 0.652
2 | NCI-H596 | 0.709 | 0.749 | 0.617 | 0.709 | 0.737 | 1.05 | 1.02 | 1.21 | 1.08 | 0.887 | 0.633 | 0.509 | 0.569 | 0.633 | 0.56 | 0.384 | 0.37 | 0.285 | 0.309 | 0.411
3 | H3255 | 0.663 | 0.588 | 0.592 | 0.522 | 0.541 | 0.241 | 0.253 | 0.191 | 0.233 | 0.226 | 0.291 | 0.366 | 0.459 | 0.35 | 0.356 | 0.555 | 0.431 | 0.487 | 0.38 | 0.456
4 | NCI-H647 | 0.566 | 0.607 | 0.637 | 0.634 | 0.719 | 1.31 | 0.687 | 1.31 | 1.2 | 0.829 | 0.168 | 0.203 | 0.235 | 0.243 | 0.137 | 0.552 | 0.409 | 0.385 | 0.44 | 0.373
5 | NCI-H2023 | 0.51 | 0.387 | 0.489 | 0.453 | 0.369 | 0.747 | 0.936 | 1.04 | 0.814 | 0.606 | 0.707 | 0.489 | 0.671 | 0.593 | 0.343 | 0.222 | 0.242 | 0.238 | 0.288 | 0.201
6 | NCI-H23 | 0.828 | 0.709 | 0.54 | 0.607 | 0.531 | 1.08 | 1.1 | 1.34 | 0.955 | 1.36 | 0.881 | 0.942 | 0.696 | 0.78 | 0.925 | 0.549 | 0.472 | 0.446 | 0.462 | 0.466
7 | NCI-H520 | 0.301 | 0.23 | 0.263 | 0.237 | 0.305 | 0.921 | 0.767 | 1.25 | 0.847 | 0.769 | 0.252 | 0.236 | 0.292 | 0.231 | 0.292 | 0.276 | 0.283 | 0.282 | 0.294 | 0.368
8 | NCI-H460 | 0.674 | 0.598 | 0.67 | 0.718 | 0.537 | 1.6 | 0.445 | 1.76 | 0.948 | 0.75 | 0.641 | 0.56 | 0.644 | 0.565 | 0.422 | 0.368 | 0.411 | 0.402 | 0.302 | 0.322
9 | EKVX | 0.754 | 0.688 | 0.658 | 0.71 | 0.617 | 0.2 | 0.239 | 0.199 | 0.181 | 0.216 | 0.635 | 0.538 | 0.552 | 0.469 | 0.426 | 0.406 | 0.356 | 0.416 | 0.329 | 0.338
10 | NCI-H1944 | 0.391 | 0.376 | 0.341 | 0.443 | 0.403 | 0.583 | 0.899 | 0.804 | 0.902 | 0.846 | 0.233 | 0.216 | 0.205 | 0.226 | 0.246 | 0.331 | 0.37 | 0.319 | 0.363 | 0.328
11 | EPLC-272H | 0.366 | 0.296 | 0.32 | 0.346 | 0.317 | 0.838 | 0.804 | 1.32 | 0.93 | 0.761 | 0.41 | 0.324 | 0.357 | 0.383 | 0.294 | 0.33 | 0.356 | 0.288 | 0.336 | 0.306
12 | NCI-H1563 | 0.78 | 0.769 | 0.768 | 0.796 | 0.728 | 0.992 | 1.05 | 0.975 | 0.886 | 0.882 | 0.446 | 0.514 | 0.555 | 0.453 | 0.502 | 0.706 | 0.582 | 0.701 | 0.607 | 0.633
13 | NCI-H1395 | 0.672 | 0.67 | 0.558 | 0.767 | 0.655 | 0.953 | 0.973 | 1.2 | 0.819 | 0.858 | 0.409 | 0.443 | 0.472 | 0.4 | 0.392 | 0.689 | 0.638 | 0.642 | 0.828 | 0.551
14 | NCI-H2126 | 0.724 | 0.733 | 0.661 | 0.667 | 0.646 | 0.704 | 0.701 | 0.801 | 0.82 | 0.707 | 0.66 | 0.554 | 0.62 | 0.592 | 0.46 | 0.512 | 0.512 | 0.489 | 0.453 | 0.456
15 | LXF-289 | 0.898 | 0.79 | 0.901 | 0.872 | 0.776 | 0.984 | 0.778 | 0.913 | 0.931 | 0.804 | 0.173 | 0.241 | 0.234 | 0.236 | 0.15 | 0.912 | 0.795 | 0.799 | 0.765 | 0.723
16 | NCI-H2009 | 0.764 | 0.668 | 0.722 | 0.632 | 0.525 | 0.997 | 1.02 | 0.914 | 0.872 | 0.793 | 0.288 | 0.287 | 0.304 | 0.278 | 0.235 | 0.866 | 0.767 | 0.841 | 0.762 | 0.765
